{"source": "patent US20240262878A1", "about": "“PHOTOACTIVATABLE GASDERMIN PROTEINS” (THE BOARD OF TRUSTEES OF THE UNIVERSITY OF ILLINOIS, priority 2021, published 2024)", "molecules": {"B1": {"name": "m3: PhoDer mutant R42Q/K43Q (SEQ ID NO:36) (protein)", "chain": "MGSAFERVVRRVVQELDHGGEFIPVTSLQSSTGFQPYCLVVQQPSSSWFWKPRYKCVNLSIKDILEPDAAEPDVQRGRSFHFYDAMDGQIQGSVELAAPGQAKIAGGAAVSDSSSTSMNVYSLSVDPNTWQTLLHERHLRQPEHKVLQQLRSRGDNVYVVTEVLQTQKEVEVTRTHKREGSGRFSLPGATCLQGEGQGHLSQKKTVTIPSGSTLAFRVAQLVIDSDLDVLLFPDKKQRTFQPPATGHKRSTSEGAWPQLPSGLSMMRCLHNGGGSVIPDYFKQSFPEGYSWERSMTYEDGGICIATNDITMEGDSFINKIHFKGTNFPPNGPVMQKRTVGWEASTEKMYERDGVLKGDVKMKLLLKGGGHYRCDYRTTYKVKQKPVKLPDYHFVDHRIEILSHDKDYNKVKLYEHAVARNSTDSMDELYKGGSGGMVSKGEETITSVIKPDMKNKLRMEGNVNGHAFVIEGEGSGKPFEGIQTIDLEVKEGAPLPFAYDILTTAFHYGNRVFTKYPRGGGVPAEGAFTEDFQGLRAEVETISKELELLDRELCQLLLEGLEGVLRDQLALRALEEALEQGQSLGPVEPLDGPAGAVLECLVLSSGMLVPELAIPVVYLLGALTMLSETQHKLLAEALESQTLLGPLELVGSLLEQSAPWQERSTMSLPPGLLGNSWGEGAPAWVLLDECGLELGEDTPHVCWEPQAQGRMCALYASLALLSGLSQEPH"}, "B2": {"name": "m4: PhoDer mutant R42E/K43E (SEQ ID NO:37) (protein)", "chain": "B1 chain with Q42E, Q43E"}, "B3": {"name": "m5: PhoDer mutant R42Q/K43Q/K51Q/R53Q/K55Q (SEQ ID NO:38) (protein)", "chain": "B1 chain with K51Q, R53Q, K55Q"}, "B4": {"name": "m6: PhoDer mutant R42E/K43E/K51E/R53E/K55E (SEQ ID NO: 39) (protein)", "chain": "B1 chain with Q42E, Q43E, K51E, R53E, K55E"}, "B5": {"name": "R7E/R10E/R11E: mutant at the well-conserved N-terminal region of GSDMD (protein, UniProt P57764 1-484, looked up, variant R7E R10E R11E)", "Gasdermin-D": "MGSAFEEVVEEVVQELDHGGEFIPVTSLQSSTGFQPYCLVVRKPSSSWFWKPRYKCVNLSIKDILEPDAAEPDVQRGRSFHFYDAMDGQIQGSVELAAPGQAKIAGGAAVSDSSSTSMNVYSLSVDPNTWQTLLHERHLRQPEHKVLQQLRSRGDNVYVVTEVLQTQKEVEVTRTHKREGSGRFSLPGATCLQGEGQGHLSQKKTVTIPSGSTLAFRVAQLVIDSDLDVLLFPDKKQRTFQPPATGHKRSTSEGAWPQLPSGLSMMRCLHNFLTDGVPAEGAFTEDFQGLRAEVETISKELELLDRELCQLLLEGLEGVLRDQLALRALEEALEQGQSLGPVEPLDGPAGAVLECLVLSSGMLVPELAIPVVYLLGALTMLSETQHKLLAEALESQTLLGPLELVGSLLEQSAPWQERSTMSLPPGLLGNSWGEGAPAWVLLDECGLELGEDTPHVCWEPQAQGRMCALYASLALLSGLSQEPH"}, "B6": {"name": "R137E: mutant at another helical region of GSDMD N-terminal domain (protein, UniProt P57764 1-484, looked up, variant R137E)", "Gasdermin-D": "B5 Gasdermin-D with E7R, E10R, E11R, R137E"}, "B7": {"name": "R151E/R153E: mutant at another helical region of GSDMD N-terminal domain (protein, UniProt P57764 1-484, looked up, variant R151E R153E)", "Gasdermin-D": "B5 Gasdermin-D with E7R, E10R, E11R, R151E, R153E"}}, "format_in_all_cases": "cell-based", "key": {"[1]": {"test_system": "bone marrow-derived macrophages (BMDM)", "assay": "IL-1β cytokine release ELISA", "conditions": "short-term LPS stimulation (5 minutes), mouse BMDM", "method": "Cytokine Release. LPS-stimulated, IL-1β cytokine release from bone-marrow monocyte-derived macrophages ([…] mice) was measured using the QUANTIKINE® ELISA kit (R&D Systems). Cells were seeded in 96-well plates and pre-treated for 10 minutes with medium, 10 μM U73122, or 10 μM wortmannin. LPS (100 ng/μL, Invivogen) was then added to the cells for 5 minutes and the cell-free supernatants were recovered and subjected to the ELISA kit according to the manufacturer's instructions. The concentration of the samples in 96-well plates was measured via absorbance at 450 nm using an Epoch Microplate Spectrophotometer (Biotek Instruments). The OD values in six technical repeats each from a total of three mice (n=18) were converted into the […] levels reported via a power law fit of a serial dilution calibration curve."}, "[2]": {"test_system": "Hela cells", "assay": "PhoDer activation after pretreatment with PI3K/PLC modulators, calcium flare dynamics", "method": "(§1) Cell Culture. HeLa and RAW264.7 cells were maintained in Dulbecco's Modified Eagle Medium (DMEM) medium supplemented with 10% fetal bovine serum (FBS) and 1% penicillin and streptomycin. Cells were transfected at 50%-70% confluency using LIPOFECTAMINE® 2000 transfection reagent and incubated for 24 hours before imaging. Cells were never serum-starved. To examine endogenous inflammatory activation, RAW264.7 cells were treated with 100 ng/μL lipopolysaccharide (LPS, Invivogen) at the beginning of each experiment. Pretreatment to bias membrane composition by phosphatidylinositol 4,5-bisphosphate (PIP2) modifying enzymes was performed by incubating Hela cells in Hanks' Balanced Salt Solution (HBSS) buffer with inhibitors at 37° C. for 10 minutes to prior imaging at the following concentrations: for phosphoinositide 3-kinase (PI3K), cells were treated 10 μM wortmannin (Tocris); and for phospholipase C (PLC), cells were treated with 10 μM U73122 (Tocris). Cells were removed from the incubator and allowed to come to thermal equilibrium before being imaged in HBSS buffer at room temperature.\n(§2) Fluorescence Imaging, Optogenetic Activation, and Post-Processing. All epifluorescence imaging was performed on a customized Nikon Ti2-E microscope equipped with individual control over excitation (EX) and emission (EM) filters, a fast LED light source (Lumencor) with fluid-cooled EMCCD (Andor), motorized stage, and examined under a 40× or 100× oil immersion objective under live focus tracking. For RFP, excitation (EX) and emission (EM) filter combinations (maxima/bandwidth in nm) are indicated. Cells were imaged at 12-15 second intervals. Emission intensities of individual cells were background-subtracted before normalization to zero time point, when optogenetic activation began. In the optical setup, optogenetic activation of PhoDer was performed using an EX filter at 440/20 nm for 20-30 ms across whole fields of view. This replicated the progression of endogenous activation of GSDMD observed in LPS-stimulated RAW264.7 cells. […] Where applicable, inhibitors were treated at the indicated concentration for 15 minutes prior to imaging.\nFluctuation Analysis and Quantification. To automate the objective isolation and quantitation of calcium flares, a post-processing algorithm was developed based on principles and normalization scheme detailed in work on photochromic stochastic optical fluctuation imaging (pcSOFI) (Dedecker et al. (2012) Proc. Natl. Acad. Sci. USA 109: 10909-10914). Briefly, fluctuation caused by the flares generate high autocorrelation signals in time-averaged series and yield high contrast at locales of the greatest ion flux. To truly reflect the local flux change, it is then normalized to remove dependence on the number of biosensors reporting at the given location using a scheme detailed previously (Mo et al. (2017) Nat. Methods 14 (4): 427-434). Using Matlab, rolling-window mean and rolling-window autocorrelation values were calculated for each pixel over each entire fluorescence time course that contained possible flares. A heuristic approach to window size was taken and a range of window sizes were examined using examples where calcium flares were visually distinct prior to setting the window size for all analyses. All such fluctuation images were then verified manually against intensity time course to ensure bone fide flare detection; particularly strong and non-overlapping flares were chosen and added to calculate kinetic parameters. […]"}, "[3]": {"test_system": "Hela cells", "assay": "Optogenetic activation of PhoDer, membrane-targeted jRCaMP1b calcium flare imaging and fluctuation analysis", "conditions": "for pore opening/closing dynamics (automated flare quantification): PhoDer mutants in live Hela cells vs PhoDer; for calcium response of mutants at other putative lipid-binding sites: charge-altering mutations", "method": "Cloning. Cloning and subcloning were performed using the DH5a strain of E. coli. All mammalian constructs were cloned into the pcDNA3.0 vector with a modified multiple cloning site. Plasmids were generated as follows. Gasdermin D gene was obtained from Addgene. A diffusible optogenetic GSDMD, referred to herein as “PhoDer” and set forth in SEQ ID NO: 33, was constructed according to the reported domains structure by ligating three fragments into the pcDNA3.0 vector in one reaction via Gibson Assembly (New England BioLabs). For each fragment, PCR was specifically designed to create appropriate complementation. The jRCaMP1b gene, encoding a sensitive red protein calcium indicator, was obtained from Addgene. Membrane targeted calcium indicator jRCaMP1b was constructed by ligating a PCR fragment of the calcium indicator into the restriction enzyme sites BamHI and EcoRI in a modified pcDNA3.0 vector carrying a 5′ fragment encoding the N-terminal Lyn kinase localization sequence.\nas §1, §2\nFluctuation Analysis and Quantification. To automate the objective isolation and quantitation of calcium flares, a post-processing algorithm was developed based on principles and normalization scheme detailed in work on photochromic stochastic optical fluctuation imaging (pcSOFI) (Dedecker et al. (2012) Proc. Natl. Acad. Sci. USA 109: 10909-10914). Briefly, fluctuation caused by the flares generate high autocorrelation signals in time-averaged series and yield high contrast at locales of the greatest ion flux. To truly reflect the local flux change, it is then normalized to remove dependence on the number of biosensors reporting at the given location using a scheme detailed previously (Mo et al. (2017) Nat. Methods 14 (4): 427-434). […]"}}, "note": "Residue numbers refer to the chain shown, from its start. Numbers in names are those of the source. Entries after “also recorded” stand apart in the source; their conditions may differ."}
{"molecule": "Cc1cc(C)c(S(=O)(=O)Nc2cccc(C(F)(F)F)c2)c(C)c1", "note": "[m-3m3FBS]", "values": [{"measurement": "IL-1β release", "setting": "[1]", "value": "did not limit LPS-stimulated IL-1β release"}, {"measurement": "calcium flare occurrence / calcium response with PI3K/PLC activators", "setting": "[2]", "value": "inhibited flare occurrence for a short time"}]}
{"molecule": "COc1ccc2c(c1)CC[C@@H]1[C@@H]2CC[C@]2(C)[C@@H](NCCCCCCN3C(=O)C=CC3=O)CC[C@@H]12", "note": "[U73122]", "values": [{"measurement": "IL-1β release", "setting": "[1]", "value": "enhanced"}, {"measurement": "pixel-wise calcium fluctuations, local pore activity per locale", "setting": "[2]; pretreated vs non-pretreated cells", "value": "highest activity per locale"}, {"measurement": "intracellular calcium progression after PhoDer activation", "setting": "[2]; pretreatment 10 μM", "value": "steep, cumulative rise in intracellular calcium"}]}
{"molecule": "COC[C@H]1OC(=O)c2coc3c2[C@@]1(C)C1=C(C3=O)[C@@H]2CCC(=O)[C@@]2(C)C[C@H]1OC(C)=O", "note": "[wortmannin]", "values": [{"measurement": "spatial extent flares reached", "setting": "[2]; pretreatment 10 μM, n=27", "value": 12, "unit": "μm"}]}
{"molecule": "740 Y-P", "values": [{"measurement": "IL-1β release", "setting": "[1]", "value": "failed to elicit meaningful differences"}, {"measurement": "calcium flare occurrence / calcium response with PI3K/PLC activators", "setting": "[2]", "value": "failed to elicit meaningful differences"}]}
{"molecule": "B1", "values": [{"measurement": "pore opening/closing dynamics (automated flare quantification)", "setting": "[3]", "value": "significantly reduced pore opening/closing dynamics; also recorded: significant changes in pore activity"}]}
{"molecule": "B2", "values": [{"measurement": "pore opening/closing dynamics (automated flare quantification)", "setting": "[3]", "value": "significantly reduced pore opening/closing dynamics"}]}
{"molecule": "B3", "values": [{"measurement": "pore opening/closing dynamics (automated flare quantification)", "setting": "[3]", "value": "significantly reduced pore opening/closing dynamics; also recorded: significant changes in pore activity"}]}
{"molecule": "B4", "values": [{"measurement": "pore opening/closing dynamics (automated flare quantification)", "setting": "[3]", "value": "significantly reduced pore opening/closing dynamics"}]}
{"molecule": "B5", "values": [{"measurement": "calcium response of mutants at other putative lipid-binding sites", "setting": "[3]", "value": "much-reduced calcium magnitude"}]}
{"molecule": "B6", "values": [{"measurement": "calcium response of mutants at other putative lipid-binding sites", "setting": "[3]", "value": "either encumbering or abrogating the calcium response"}]}
{"molecule": "B7", "values": [{"measurement": "calcium response of mutants at other putative lipid-binding sites", "setting": "[3]", "value": "either encumbering or abrogating the calcium response"}]}
